Assay results taken from ChEMBL document CHEMBL3868582, “Discovery, pharmacology, and clinical profile of omadacycline, a novel aminomethylcycline antibiotic” (Bioorg Med Chem, 2016).
≈ marks a conversion by molar mass, not a printed value. Blank lines part the entries; values can stand above or below the molecule they belong to.

How the values were obtained:
Streptococcus pneumoniae [1] = assay: Antibacterial activity against Streptococcus pneumoniae PBS1399; assay type: functional
Streptococcus pneumoniae [2] = assay: Antibacterial activity against Streptococcus pneumoniae PBS1399 infected in mouse assessed as protection against bacterial infection by measuring mouse survival administered intravenously as single dose after 2 hrs of infection measured on day 7; assay type: functional; conditions: PBS1399, iv, read-out: PD50
[3] = Drug excretion in human urine at 36.6 uCi, po administered as single dose; assay type: ADME, organism-based; conditions: in vivo
Clostridioides difficile = assay: Antibacterial activity against Clostridium difficile infected in hamster model assessed as median survival time; assay type: functional
[4] = Cmax in human at 1.5 mg/kg, iv q24h; assay type: ADME, organism-based; parameters: dose 1.5 mg/kg, route intravenous; conditions: in vivo
[5] = Cmax in human at 100 mg, po q12h; assay type: ADME, organism-based; parameters: dose 100 mg, route oral; conditions: in vivo
[6] = AUC(0 to 24 hrs) in human at 1.5 mg/kg, iv q24h; assay type: ADME, organism-based; parameters: dose 1.5 mg/kg, time < 24 hr, route intravenous; conditions: in vivo
[7] = AUC(0 to 24 hrs) in human at 100 mg, po q12h; assay type: ADME, organism-based; parameters: time < 24 hr, dose 100 mg, route oral; conditions: in vivo
[8] = Systemic clearance in human at 1.5 mg/kg, iv q24h or 100 mg, po q12h; assay type: ADME, organism-based; conditions: in vivo
[9] = Terminal half life in human at 1.5 mg/kg, iv q24h or 100 mg, po q12h; assay type: ADME, organism-based; conditions: in vivo, read-out: beta t1/2
[10] = Oral bioavailability in human at 100 mg administered q12h; assay type: ADME, organism-based; conditions: in vivo
[11] = Protein binding in human plasma; assay type: ADME, cell-free; conditions: read-out: PPB
Staphylococcus aureus [12] = assay: Antibacterial activity against Staphylococcus aureus USA300; assay type: functional
Staphylococcus aureus [13] = assay: Antibacterial activity against Staphylococcus aureus USA400; assay type: functional
Staphylococcus aureus [14] = assay: Antibacterial activity against Staphylococcus aureus USA300 in mouse thigh wound infection model assessed as reduction in bacterial load administered intravenously as single dose after 2 hrs of infection measured after 24 hrs post treatment; assay type: functional; conditions: USA300, iv
Staphylococcus aureus [15] = assay: Antibacterial activity against Staphylococcus aureus USA400 in mouse thigh wound infection model assessed as reduction in bacterial load administered intravenously as single dose after 2 hrs of infection measured after 24 hrs post treatment; assay type: functional; conditions: USA400, iv
Haemophilus influenzae [16] = assay: Antibacterial activity against Haemophilus influenzae PBS981; assay type: functional
Haemophilus influenzae [17] = assay: Antibacterial activity against Haemophilus influenzae PBS981 infected in CD-1 mouse assessed as reduction in bacterial load in lungs administered intravenously as single dose after 2 hrs of infection measured after 24 hrs post treatment; assay type: functional; conditions: PBS981, iv
[18] = Cmax in human at 50 mg, iv q12h; assay type: ADME, organism-based; parameters: dose 50 mg, route intravenous; conditions: in vivo
[19] = AUC(0 to 24 hrs) in human at 50 mg, iv q12h; assay type: ADME, organism-based; parameters: dose 50 mg, time < 24 hr, route intravenous; conditions: in vivo
[20] = Systemic clearance in human at 50 mg, iv q12h; assay type: ADME, organism-based; conditions: in vivo
[21] = Terminal half life in human at 50 mg, iv q12h; assay type: ADME, organism-based; conditions: in vivo, read-out: beta t1/2
OAT1 (SLC22A6) = OAT1 (SLC22A6) (Homo sapiens, UniProt Q4U2R8); assay: Inhibition of human OAT1 expressed in HEK293 cells at 25 uM; assay type: cell-based
Sequence of OAT1 (SLC22A6) (Q4U2R8 whole entry): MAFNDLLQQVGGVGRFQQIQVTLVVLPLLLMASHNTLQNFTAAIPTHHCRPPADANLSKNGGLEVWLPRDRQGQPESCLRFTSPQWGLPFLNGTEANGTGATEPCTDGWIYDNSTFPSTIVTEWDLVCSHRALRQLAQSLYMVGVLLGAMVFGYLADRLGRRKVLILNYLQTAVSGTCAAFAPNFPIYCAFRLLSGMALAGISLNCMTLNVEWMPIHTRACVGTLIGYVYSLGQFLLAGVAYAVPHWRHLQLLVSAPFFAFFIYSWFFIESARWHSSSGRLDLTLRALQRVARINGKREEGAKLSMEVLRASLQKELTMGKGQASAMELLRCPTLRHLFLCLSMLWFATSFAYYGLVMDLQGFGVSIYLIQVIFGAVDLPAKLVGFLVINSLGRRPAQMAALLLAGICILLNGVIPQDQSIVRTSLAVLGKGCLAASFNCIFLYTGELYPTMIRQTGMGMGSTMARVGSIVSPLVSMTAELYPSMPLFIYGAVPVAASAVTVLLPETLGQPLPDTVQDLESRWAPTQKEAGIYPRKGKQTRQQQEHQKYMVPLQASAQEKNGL

OATP1B1 = OATP1B1 (Homo sapiens, UniProt Q9Y6L6); assay: Inhibition of OATP1B1 (unknown origin) in HEK293 cells at 100 uM; assay type: cell-based; conditions: HEK293 cells expressing OATP1B1
Sequence of OATP1B1 (Q9Y6L6 whole entry): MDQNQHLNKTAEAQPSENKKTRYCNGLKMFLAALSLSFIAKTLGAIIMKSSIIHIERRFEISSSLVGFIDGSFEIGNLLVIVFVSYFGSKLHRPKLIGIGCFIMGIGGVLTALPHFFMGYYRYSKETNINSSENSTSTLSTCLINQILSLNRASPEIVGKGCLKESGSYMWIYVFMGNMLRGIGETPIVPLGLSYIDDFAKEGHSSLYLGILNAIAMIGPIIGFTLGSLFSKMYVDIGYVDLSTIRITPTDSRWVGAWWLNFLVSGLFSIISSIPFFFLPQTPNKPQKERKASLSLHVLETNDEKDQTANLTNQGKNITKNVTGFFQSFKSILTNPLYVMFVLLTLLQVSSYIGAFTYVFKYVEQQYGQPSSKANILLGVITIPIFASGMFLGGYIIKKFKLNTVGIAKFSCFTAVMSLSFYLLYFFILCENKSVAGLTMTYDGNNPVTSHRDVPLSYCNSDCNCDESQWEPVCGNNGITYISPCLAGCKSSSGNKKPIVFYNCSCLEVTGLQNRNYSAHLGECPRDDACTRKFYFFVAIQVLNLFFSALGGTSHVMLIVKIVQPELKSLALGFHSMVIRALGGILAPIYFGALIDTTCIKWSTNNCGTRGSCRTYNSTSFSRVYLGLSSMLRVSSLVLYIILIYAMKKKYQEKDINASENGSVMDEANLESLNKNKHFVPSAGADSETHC

OATP1B3 = OATP1B3 (Homo sapiens, UniProt Q9NPD5); assay: Inhibition of OATP1B3 (unknown origin) in HEK293 cells at 100 uM; assay type: cell-based; conditions: HEK293 cells expressing OATP1B3
Sequence of OATP1B3 (Q9NPD5 whole entry): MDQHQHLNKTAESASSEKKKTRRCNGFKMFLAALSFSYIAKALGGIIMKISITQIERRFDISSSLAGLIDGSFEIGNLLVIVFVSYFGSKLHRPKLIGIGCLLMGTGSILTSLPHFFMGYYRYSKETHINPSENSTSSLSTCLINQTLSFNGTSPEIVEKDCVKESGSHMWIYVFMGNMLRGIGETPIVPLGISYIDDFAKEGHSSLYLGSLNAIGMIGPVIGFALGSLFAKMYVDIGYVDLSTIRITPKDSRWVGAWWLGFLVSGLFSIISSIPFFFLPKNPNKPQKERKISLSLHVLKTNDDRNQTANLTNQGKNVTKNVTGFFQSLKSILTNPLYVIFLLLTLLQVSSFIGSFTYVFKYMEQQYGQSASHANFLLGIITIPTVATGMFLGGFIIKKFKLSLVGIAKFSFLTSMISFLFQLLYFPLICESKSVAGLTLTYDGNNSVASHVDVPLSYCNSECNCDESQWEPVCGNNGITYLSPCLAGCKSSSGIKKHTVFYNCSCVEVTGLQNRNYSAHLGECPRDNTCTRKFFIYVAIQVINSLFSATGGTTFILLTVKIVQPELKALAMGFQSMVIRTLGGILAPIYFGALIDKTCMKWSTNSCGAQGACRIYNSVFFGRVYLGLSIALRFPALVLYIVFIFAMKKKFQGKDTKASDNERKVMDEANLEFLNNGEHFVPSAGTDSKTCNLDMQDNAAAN

[22] = Drug excretion in human feces at 36.6 uCi, po administered as single dose; assay type: ADME, organism-based; conditions: in vivo
[23] = Fraction absorbed in human urine at 36.6 uCi, po administered as single dose; assay type: ADME, organism-based; conditions: in vivo
[24] = Cmax in human at 100 mg, iv administered as infusion; assay type: ADME, organism-based; parameters: dose 100 mg, route intravenous; conditions: in vivo
[25] = Cmax in human at 300 mg, po; assay type: ADME; parameters: dose 300 mg, route oral; conditions: in vivo
[26] = AUC(0 to 24 hrs) in human at 100 mg, iv; assay type: ADME; parameters: dose 100 mg, time < 24 hr, route intravenous; conditions: in vivo
[27] = AUC(0 to 24 hrs) in human at 300 mg, po; assay type: ADME; parameters: time < 24 hr, dose 300 mg, route oral; conditions: in vivo
[28] = Systemic clearance in human at 100 mg, iv or 300 mg, po; assay type: ADME, organism-based; conditions: in vivo
[29] = Terminal half life in human at 100 mg, iv or 300 mg, po; conditions: in vivo
[30] = Protein binding in human plasma at 0.1 to 10 ug/ml; assay type: ADME, cell-free; conditions: read-out: PPB (converted)
[31] = Oral bioavailability in human 300 mg; assay type: ADME, organism-based; conditions: in vivo
[32] = Volume of distribution in human at 100 mg, iv or 300 mg, po; assay type: ADME, organism-based; conditions: in vivo
[33] = Tmax in human at 300 mg, po; assay type: ADME; conditions: in vivo
[34] = Half life in human at 300 mg, po; conditions: in vivo

SMILES: C[C@H]1c2cccc(O)c2C(=O)C2=C(O)[C@]3(O)C(=O)C(C(N)=O)=C(O)[C@@H](N(C)C)[C@@H]3[C@@H](O)[C@@H]21.O [DOXYCYCLINE]
MIC (Streptococcus pneumoniae [1]): 0.125 µg/mL
ED50 (Streptococcus pneumoniae [2]): 10.3 mg/kg

Drug excretion [3]: 14.4 %ID
SMILES: CN(C)c1cc([14CH2]NCC(C)(C)C)c(O)c2c1C[C@H]1C[C@H]3[C@@H](N(C)C)C(O)=C(C(N)=O)C(=O)[C@@]3(O)C(O)=C1C2=O

SMILES: CCC[C@@H]1C[C@@H](C(=O)N[C@@H]([C@H]2O[C@H](SC)[C@H](O)[C@@H](O)[C@H]2O)[C@H](C)Cl)N(C)C1 [CLINDAMYCIN]
MST (Clostridioides difficile): 4 days

Cmax [4]: 1900 ng/mL
Cmax [5]: 160 ng/mL
AUC at 24 h [6]: 7900 ng·h/mL
AUC at 24 h [7]: 3100 ng·h/mL
clearance [8]: 297 mL/min
half-life [9]: 10 to 14 h
bioavailability [10]: 28%
fraction unbound [11]: 0.13 to 0.21
SMILES: CN(C)[C@@H]1C(O)=C(C(N)=O)C(=O)[C@@]2(O)C(O)=C3C(=O)c4c(O)c(NC(=O)CN5CCCC5)cc(F)c4C[C@H]3C[C@@H]12 [ERAVACYCLINE]

SMILES: CN(C)c1cc(NC(=O)CNC(C)(C)C)c(O)c2c1C[C@H]1C[C@H]3[C@H](N(C)C)C(O)=C(C(N)=O)C(=O)[C@@]3(O)C(O)=C1C2=O [TIGECYCLINE]
MIC (Staphylococcus aureus [12]): 0.125 µg/mL (≈ 0.213 µM)
MIC (Staphylococcus aureus [13]): 0.06 µg/mL (≈ 0.102 µM)
MIC (Streptococcus pneumoniae [1]): 0.125 µg/mL (≈ 0.213 µM)
ED50 (Staphylococcus aureus [14]): 0.45 mg/kg
ED50 (Staphylococcus aureus [15]): 0.46 mg/kg
ED50 (Streptococcus pneumoniae [2]): 0.91 mg/kg
MIC (Haemophilus influenzae [16]): 0.25 µg/mL (≈ 0.427 µM)
ED50 (Haemophilus influenzae [17]): 2.31 mg/kg
Cmax [18]: 870 ng/mL
AUC [19]: 4700 ng·h/mL
CL [20]: 23.8 L/h
half-life [21]: 37 to 66 h
fraction unbound [11]: 0.13 to 0.31

inhibition at 25 µM (OAT1 (SLC22A6)): 32.1%
inhibition at 100 µM (OATP1B1): 10.1%
inhibition at 100 µM (OATP1B3): 10.1%
Drug excretion [22]: 81.1 %ID
Drug excretion [3]: 14.4 %ID
Fabs [23]: 40%
SMILES: CN(C)c1cc([14CH2]NCC(C)(C)C)c(O)c2c1C[C@H]1C[C@H]3[C@H](N(C)C)C(O)=C(C(N)=O)C(=O)[C@@]3(O)C(O)=C1C2=O

SMILES: CN(C)c1ccc(O)c2c1C[C@H]1C[C@H]3[C@H](N(C)C)C(O)=C(C(N)=O)C(=O)[C@@]3(O)C(O)=C1C2=O [MINOCYCLINE]
MIC (Streptococcus pneumoniae [1]): 0.25 µg/mL (≈ 0.546 µM)
ED50 (Streptococcus pneumoniae [2]): 3.44 mg/kg

SMILES: CC[C@H]1OC(=O)[C@H](C)[C@@H](O[C@H]2C[C@@](C)(OC)[C@@H](O)[C@H](C)O2)[C@H](C)[C@@H](O[C@@H]2O[C@H](C)C[C@H](N(C)C)[C@H]2O)[C@](C)(O)C[C@@H](C)CN(C)[C@H](C)[C@@H](O)[C@]1(C)O [AZITHROMYCIN]
MIC (Streptococcus pneumoniae [1]): 0.03 µg/mL (≈ 0.0401 µM)
ED50 (Streptococcus pneumoniae [2]): 3.31 mg/kg

SMILES: CO/N=C(\C(=O)N[C@@H]1C(=O)N2C(C(=O)O)=C(CSc3nc(=O)c(O)nn3C)CS[C@H]12)c1csc(N)n1 [CEFTRIAXONE]
MIC (Streptococcus pneumoniae [1]): 0.015 µg/mL (≈ 0.027 µM)
ED50 (Streptococcus pneumoniae [2]): 0.37 mg/kg
MIC (Haemophilus influenzae [16]): < 0.06 µg/mL
ED50 (Haemophilus influenzae [17]): 0.1 mg/kg

SMILES: CN(C)c1cc(CNCC(C)(C)C)c(O)c2c1C[C@H]1C[C@H]3[C@H](N(C)C)C(O)=C(C(N)=O)C(=O)[C@@]3(O)C(O)=C1C2=O.Cl
Cmax [24]: 1800 ng/mL
Cmax [25]: 700 ng/mL
AUC [26]: 8800 ng·h/mL
AUC(0-t) at 24 h [27]: 5900 ng·h/mL
CL [28]: 17.1 L/h
half-life [29]: 17 h
fraction unbound [30]: 0.79
bioavailability [31]: 34.5%
Vd [32]: 333 to 640 L

SMILES: CN(C)c1cc(CNCC(C)(C)C)c(O)c2c1C[C@H]1C[C@H]3[C@H](N(C)C)C(O)=C(C(N)=O)C(=O)[C@@]3(O)C(O)=C1C2=O.Cc1ccc(S(=O)(=O)O)cc1 [OMADACYCLINE TOSYLATE]
Cmax [25]: 540 ng/mL
bioavailability [31]: 34.5%
Tmax [33]: 3 h
half-life [34]: 17 h

MIC (Haemophilus influenzae [16]): < 0.06 µg/mL
SMILES: O=C(O)c1cn(C2CC2)c2cc(N3CCNCC3)c(F)cc2c1=O [CIPROFLOXACIN]
ED50 (Haemophilus influenzae [17]): 1.16 mg/kg

SMILES: CN[C@H](CC(C)C)C(=O)N[C@H]1C(=O)N[C@@H](CC(N)=O)C(=O)N[C@H]2C(=O)N[C@H]3C(=O)N[C@H](C(=O)N[C@H](C(=O)O)c4cc(O)cc(O)c4-c4cc3ccc4O)[C@H](O)c3ccc(c(Cl)c3)Oc3cc2cc(c3O[C@@H]2O[C@H](CO)[C@@H](O)[C@H](O)[C@H]2O[C@H]2C[C@](C)(N)[C@H](O)[C@H](C)O2)Oc2ccc(cc2Cl)[C@H]1O [VANCOMYCIN]
MST (Clostridioides difficile): 2 days
MIC (Streptococcus pneumoniae [1]): 0.5 µg/mL (≈ 0.345 µM)
ED50 (Streptococcus pneumoniae [2]): 3.3 mg/kg

SMILES: C[C@H]1COc2c(N3CCN(C)CC3)c(F)cc3c(=O)c(C(=O)O)cn1c23.C[C@H]1COc2c(N3CCN(C)CC3)c(F)cc3c(=O)c(C(=O)O)cn1c23.O [LEVOFLOXACIN]
ED50 (Streptococcus pneumoniae [2]): > 18 mg/kg
MIC (Haemophilus influenzae [16]): < 0.06 µg/mL
ED50 (Haemophilus influenzae [17]): 2.4 mg/kg

SMILES: CCCCCCCCCC(=O)N[C@@H](Cc1c[nH]c2ccccc12)C(=O)N[C@@H](CC(N)=O)C(=O)N[C@@H](CC(=O)O)C(=O)N[C@@H]1C(=O)NCC(=O)N[C@@H](CCCN)C(=O)N[C@@H](CC(=O)O)C(=O)N[C@H](C)C(=O)N[C@@H](CC(=O)O)C(=O)NCC(=O)N[C@H](CO)C(=O)N[C@@H]([C@H](C)CC(=O)O)C(=O)N[C@@H](CC(=O)c2ccccc2N)C(=O)O[C@@H]1C [DAPTOMYCIN]
MIC (Streptococcus pneumoniae [1]): 0.25 µg/mL (≈ 0.154 µM)
ED50 (Streptococcus pneumoniae [2]): > 100 mg/kg

SMILES: CC(=O)NC[C@H]1CN(c2ccc(N3CCOCC3)c(F)c2)C(=O)O1 [LINEZOLID]
ED50 (Streptococcus pneumoniae [2]): 38.8 mg/kg
